Measurements as given in patent US9358262B2, “Use of antioxidant-enriched fermented blueberry extracts in the treatment of diabetes” (priority 2003, dated 2016).

Experiments:
[1] = test system: TNF-α production in LPS/IFN-γ-activated RAW 264.7 gamma NO(−) macrophages; experiment: TNF-α quantification (ELISA) in supernatants of activated macrophages; format: cell-based, mouse; details: for TNF-α: LPS/IFN-γ control = 100; for Effect on TNF-α production, in words: over the tested concentrations
Protocol: Cell culture. The mouse monocyte/macrophage cell line RAW 264.7 gamma NO(−) [American Type Culture Collection (ATCC)] was cultured in RPMI-1640 supplemented with 10% (v/v) heat-inactivated FBS, streptomycin ([…]) and penicillin (100 units/ml). All cultures were incubated at 37° C. in a humidified atmosphere with 5% CO2. Cell number was assessed by trypan blue dye exclusion on a Neubauer hemacytometer. Cells were grown to 90% confluence in sterile cell culture flasks and gently detached using a scraper (Fisher Scientific). For phenolic compound treatment tests, cells were cultured in triplicate in Costar flat-bottom cell culture plates (Corning Inc.). Cells were plated at a density of 6×10^5 cells/well in 24-well cell culture plates and grown for 1 h to allow them to attach to the plate. Compounds to be tested were initially dissolved in 10 μl of DMSO, and then RPMI was added to make solutions in a series of concentrations with a dilution factor of 2. […] For berry juices, the final concentrations were 16, 31, 63, 125, 250 and 500 μM GAE, respectively. Cells were supplemented with the test compounds for 1 h before stimulation with 10 ng/ml lipopolysaccharide (LPS) and 10-50 units/ml interferon gamma (IFN-γ). The activated cells were incubated for 24 h and then supernatants were collected to determine nitrite concentration and/or stored at −80° C. for further use. Control cells were grown under identical conditions but were not exposed to the test compounds or LPS/IFN-γ.
Tumour necrosis factor alpha (TNF-α) Quantification. TNF-α in cell supernatants was determined by using an OptELISA set mouse TNF-α (mono/poly) from BD PharMingen. The enzyme-linked immunosorbent assay (ELISA) was carried out as specified by the manufacturer.

[2] = test system: RAW 264.7 gamma NO(−) macrophages; experiment: Cell viability of activated macrophages (MTT or resazurin assay); format: cell-based, mouse
Protocol: Cell culture. […] All cultures were incubated at 37° C. in a humidified atmosphere with 5% CO2. Cell number was assessed by trypan blue dye exclusion on a Neubauer hemacytometer. Cells were grown to 90% confluence in sterile cell culture flasks and gently detached using a scraper (Fisher Scientific). For phenolic compound treatment tests, cells were cultured in triplicate in Costar flat-bottom cell culture plates (Corning Inc.). Cells were plated at a density of 6×10^5 cells/well in 24-well cell culture plates and grown for 1 h to allow them to attach to the plate. Compounds to be tested were initially dissolved in 10 μl of DMSO, and then RPMI was added to make solutions in a series of concentrations with a dilution factor of 2. […] Cells were supplemented with the test compounds for 1 h before stimulation with 10 ng/ml lipopolysaccharide (LPS) and 10-50 units/ml interferon gamma (IFN-γ). The activated cells were incubated for 24 h and then supernatants were collected to determine nitrite concentration and/or stored at −80° C. for further use. Control cells were grown under identical conditions but were not exposed to the test compounds or LPS/IFN-γ.
Cell Viability. Cell viability was determined by the MTT assay and/or the resazurin-based in vitro toxicology assay kit, TOX-8 (Sigma). The viability of cells activated only by LPS/IFN-γ was arbitrarily set as 100, and all other viabilities, that is, cells receiving different treatments but within the same 24-well plate, were normalized to that of the LPS/IFN-γ activated control cells.
Inhibition of Nitric Oxide Production. […] Cell viability was assayed to exclude the possibility that the inhibitory effects of phenolic compounds were due to their cytotoxicity. The MTT assay was used for the colorless phenolic compound-treated macrophages, whereas the resazurin assay was used for cranberry and blueberry juice-treated macrophages.

[3] = NO experiment (Table 7), 31 μM, LPS/IFN-γ control = 100
[4] = NO experiment (Table 7), 63 μM, LPS/IFN-γ control = 100
[5] = NO experiment (Table 7), 125 μM, LPS/IFN-γ control = 100
[6] = TNF-α experiment (Table 8), 100 μM
[7] = TNF-α experiment (Table 8), 200 μM
[8] = TNF-α experiment (Table 8), 300 μM
[9] = TNF-α experiment (Table 8), 400 μM
[10] = TNF-α experiment (Table 8), 500 μM

SMILES	TNF-α ([1]; 50 μM)	TNF-α ([1]; 200 μM)	TNF-α ([1]; 400 μM)	TNF-α ([1]; 500 μM)	Effect on TNF-α production, in words [1]	Cell viability [2, 3]	Cell viability [2, 4]	Cell viability [2, 5]	Cell viability [2, 6]	Cell viability [2, 7]	Cell viability [2, 8]	Cell viability [2, 9]	Cell viability [2, 10]	TNF-α ([1]; 100 μM)	TNF-α ([1]; 300 μM)	Cell viability ([2]; NO experiment (Table 7), 16 μM, LPS/IFN-γ control = 100)	Cell viability ([2]; NO experiment (Table 7), 250 μM, LPS/IFN-γ control = 100)	Cell viability ([2]; NO experiment (Table 7), 500 μM, LPS/IFN-γ control = 100)	Cell viability ([2]; TNF-α experiment (Table 8), 50 μM)
O=C(/C=C/c1ccc(O)c(O)c1)O[C@@H]1C[C@](O)(C(=O)O)C[C@@H](O)[C@H]1O [Chlorogenic acid]	105.7 (8.4) %	99.2 (7.6) %	126 (31.1) %	115.6 (15.4) %	may induce TNF-α production	105.6 (8.7) %	106 (5.7) %	98.5 (7.1) %	100.6 (1.9) %	98.9 (2.3) %	97.1 (1.4) %	97.3 (1) %	99 (1.9) %						
O=C(O)c1cc(O)c(O)c(O)c1 [Gallic acid]	103.4 (3.2) %	160.3 (8.4) %	213.9 (54.8) %	183.5 (19.8) %	may induce TNF-α production	111 (6.4) %	98.9 (0.9) %	108.5 (0.6) %	98.3 (2.3) %	96.7 (0.8) %	97.6 (2.5) %	96.1 (2.3) %	95.6 (1.6) %	126.2 (11) %	257.4 (36.7) %	110 (2.2) %	100.6 (3.7) %	109.7 (5.4) %	97.7 (0.4) %
